Consider one substance from patent US12403184B2, “Compositions and methods for treating neurodegenerative disroders” (priority 2018, dated 2025).

Where no end group is shown, it is not given here.

Assay [1] has as its target T1, Drp1/ATAD3A (Mus musculus, UniProt Q925I1).
T1 construct: The total lysates of cells or mouse striatum were subject to IP analysis; endogenous in cells; host or cells: HdhQ7 / HdhQ111 mouse striatal cells; wild-type mouse striatal cells exposed to 3-NP
T1 sequence (Q925I1 2-591 limits assumed): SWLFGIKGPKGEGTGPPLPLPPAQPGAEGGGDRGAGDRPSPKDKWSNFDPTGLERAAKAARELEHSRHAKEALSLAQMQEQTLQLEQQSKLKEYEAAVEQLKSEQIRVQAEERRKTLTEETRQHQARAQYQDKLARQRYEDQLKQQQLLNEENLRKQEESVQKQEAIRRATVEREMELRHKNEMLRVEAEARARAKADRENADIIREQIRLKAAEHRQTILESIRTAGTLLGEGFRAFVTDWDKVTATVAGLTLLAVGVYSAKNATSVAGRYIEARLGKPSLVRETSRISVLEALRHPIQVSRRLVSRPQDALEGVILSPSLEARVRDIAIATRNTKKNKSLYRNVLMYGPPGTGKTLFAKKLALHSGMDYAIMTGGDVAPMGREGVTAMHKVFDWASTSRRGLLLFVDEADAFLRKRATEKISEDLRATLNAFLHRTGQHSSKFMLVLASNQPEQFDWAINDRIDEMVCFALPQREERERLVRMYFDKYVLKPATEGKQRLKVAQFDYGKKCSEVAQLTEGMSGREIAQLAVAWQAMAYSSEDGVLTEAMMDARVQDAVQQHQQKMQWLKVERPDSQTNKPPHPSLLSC
As to the kind of experiment: Immunoprecipitation of Drp1/ATAD3A binding in striatal extracts of treated HD R6/2 mice. Type of assay: in vivo. The note with it: striatal extracts of HD R6/2 mice, 1 mg/kg/day from 6 to 12 weeks. On the procedure: Cells and mouse brain tissues were harvested and lysed in total lysis buffer ([…], pH 7.9, […], […], 1% Triton X-100, and protease inhibitor cocktail) for 30 mins on ice and centrifuged at 12,000×g for 10 min at 4° C. The supernatants were incubated with the indicated primary antibodies or control IgG (sc-2025 and sc-2027, Santa Cruz Biotechnology) overnight at 4° C., followed by incubation with protein A/G beads (sc-2003, Santa Cruz Biotechnology) for 2 h at 4° C. The immunoprecipitates were washed with lysis buffer three times for a total of 30 min and then subject to WB analysis.
(§1) Systemic peptide treatment in HD mice. All randomization and peptide treatments were prepared by an experimenter not associated with behavioral and neuropathology analysis. Male R6/2 mice (Tg) and their age-matched wild-type littermates (Wt) (6-week-old) were implanted with a 28-day osmotic pump (Alzet, Cupertino CA, Model 2004) containing TAT control peptide or DA1 peptide, which delivered peptides at a rate of 1 mg/kg/day. Male YAC128 mice (Tg) and their age-matched wild-type littermates (WT) were treated with TAT control peptide or DA1 peptide (1 mg/kg/day) by Alzet osmotic pump starting from the age of 3 months. The pump was replaced once every month.

The target in assay [2] is T2, GST-Drp1 and ATAD3A-Flag (Homo sapiens, UniProt Q9NVI7).
T2 construct: Abnova for GST-Drp1 L1170 (TNT kit); no catalogue number printed for GST-Drp1; host or cells: cell-free coupled transcription/translation (ATAD3A-Flag); GST-Drp1 purchased
T2 sequence (Q9NVI7 1-586): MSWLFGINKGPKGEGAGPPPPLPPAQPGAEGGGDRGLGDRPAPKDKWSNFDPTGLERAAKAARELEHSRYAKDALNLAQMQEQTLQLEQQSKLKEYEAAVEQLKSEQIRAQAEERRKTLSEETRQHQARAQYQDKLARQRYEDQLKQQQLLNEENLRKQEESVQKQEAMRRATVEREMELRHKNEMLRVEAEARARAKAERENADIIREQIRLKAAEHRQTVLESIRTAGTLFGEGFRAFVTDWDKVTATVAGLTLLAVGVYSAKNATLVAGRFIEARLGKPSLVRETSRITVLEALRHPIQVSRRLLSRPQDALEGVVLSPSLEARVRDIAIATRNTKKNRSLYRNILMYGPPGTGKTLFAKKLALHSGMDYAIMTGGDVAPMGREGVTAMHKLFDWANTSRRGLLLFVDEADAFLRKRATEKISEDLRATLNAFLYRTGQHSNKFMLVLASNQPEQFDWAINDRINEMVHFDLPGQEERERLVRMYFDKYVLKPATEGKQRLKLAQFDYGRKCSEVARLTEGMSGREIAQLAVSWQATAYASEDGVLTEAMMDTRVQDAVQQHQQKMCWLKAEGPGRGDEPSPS
Nature of the assay: GST pulldown assay, in vitro binding of GST-Drp1 and ATAD3A-Flag. Conditions: GST pull down, peptide 60 μM. An excerpt: Using pcDNA3.1 (+)-ATAD3A-Flag plasmid as template, ATAD3A-Flag protein was synthesized by TNT® Quick Coupled Transcription/Translation System (Promega, Cat #L1170) followed by protein purification with Flag-peptide (Sigma, F3290). The expression of ATAD3A protein was confirmed by western blot analysis with both anti-ATAD3A and anti-Flag antibodies. This approach provides convenient single-tube, coupled transcription/translation reactions for eukaryotic cell-free protein expression and has been used to detect direct protein-protein interaction.
GST-Drp1 or GST control protein were incubated with Glutathione-beads in TBST buffer at r.t. After 1 h of incubation, ATAD3A-Flag protein was added, and thoroughly mixed in vibrating mixer for 30 mins at r.t., then transferred to 4° C. for overnight incubation Immunoprecipitates were then washed for three time and analyzed by SDS-PAGE.
To test the inhibitory function of DA1 peptide on in vitro binding between GST-Drp1 and ATAD3A-Flag, DA1 peptide or control peptide TAT (60 μM, each) was incubated with ATAD3A-Flag protein before mixing with GST-Drp1-glutathione beads complex.

Assay [3] deals with YAC128 mice. Nature of the assay: Locomotion activity in YAC128 mice. The note with it: 1 mg/kg/day from 3 to 12 months, effect from 6 until 12 months of age. It counts as in vivo, mouse.
Description: YAC128 [FVB-Tg(YAC128)53Hay/J, JAX stock number: 004938] breeders (FVB/N genetic background) were purchased from Jackson Laboratories. The YAC128 mice contain a full-length human huntingtin gene modified with a 128 CAG repeat expansion in exon 1. The mice were mated, bred, and genotyped in the animal facility of Case Western Reserve University. Male mice at the ages of 2, 3, 6, 9, and 12 months were used in the study.
as §1
Gross locomotor activity was assessed in R6/2 mice and age-matched wild-type littermates at the ages of 12 weeks, and in YAC128 mice and age-matched wildtype littermates at the ages of 2, 3, 6, 9, and 12 months. […] Distance moved, horizontal and vertical activities were recorded. […]

For “YGRKKRRQRRRGGEDKRKT-NH2 [DA1, YGRKKRRQRRR-GG-EDKRKT-NH2]”, in assay [1], the “binding of Drp1/ATAD3A” value is “significantly reduced”. The “binding of GST-Drp1 and ATAD3A-Flag in vitro” value in assay [2] is recorded as “abolished”. Also, in assay [3], the general movement activity entry was “improved”.
